This is an account of results in patent publication US11512280B2, “Method for culturing spore-forming bacteria, and method for producing useful substance” (priority 2016, dated 2022).

Holding throughout (type): cell-based
Assay [1] has as its system Bacillus subtilis MBI-600. The assay is described as follows: Culture of Bacillus subtilis with sporulation-inhibiting and sporulation-accelerating substances, 45 hours (Example 2). Here is the method:
(§1) Using a 500 ml Erlenmeyer flask (with baffles), each 100 ml of media listed in Table 1 was prepared and then autoclave sterilization was carried out. Note that glucose was separately sterilized and aseptically mixed in order to avoid Maillard reaction.
Test sections were set as described in Table 3. According to the conditions of each test section, the filter-sterilized aqueous solution of each sporulation-inhibiting substance was added aseptically to each medium. According to the conditions of each test section, one loopful of Bacillus subtilis MBI-600 was taken from a colony grown on a nutrient agar medium, inoculated, and then cultured with shaking at 30° C. and 150 rpm.
Sixteen (16) hours after the start of culture, each sporulation-accelerating substance was added according to the conditions of each test section, culture was continued. Forty-five (45) hours after the start of culture, culture was stopped.
(§2) Each of the thus obtained culture liquid was diluted 10-fold with sterile water, and then the bacterial cell concentration (vegetative cells and spores) and the sporulation rate (spore concentration/bacterial cell concentration) were measured using an optical microscope and a bacterial cell counter.

Assay [2] concerns Bacillus thuringiensis NBRC 101235 strain. Kind of assay: Culture of Bacillus thuringiensis with sporulation-inhibiting substance, 40 hours (Example 3). Here is the method: as §1
According to the conditions of each test section, the filter-sterilized aqueous solution of each sporulation-inhibiting substance was added aseptically to each medium. According to the conditions of each test section, one loopful of Bacillus thuringiensis NBRC 101235 strain was taken from a colony grown on a nutrient agar medium, inoculated, and then cultured with shaking at 30° C. and 150 rpm for 40 hours.
as §2

For assay [3], the system named is Bacillus subtilis MBI-600. Kind of assay: Culture of Bacillus subtilis with sporulation-inhibiting substance, 64 hours (Example 1). The settings on record: for Bacterial cell concentration / Spore concentration / Sporulation rate: 64 hours culture. Here is the method: Using a 500 ml Erlenmeyer flask (with baffles), each 100 ml of media listed in Table 1 was prepared and then autoclave sterilization was carried out. Glucose was separately sterilized and aseptically mixed in order to avoid Maillard reaction.
According to the conditions of each test section, the filter-sterilized aqueous solution of each sporulation-inhibiting substance was added aseptically to each medium. One loopful of Bacillus subtilis MBI-600 was taken from a colony grown on a nutrient agar medium, inoculated, and then cultured with shaking at 30° C. and 150 rpm for 64 hours.
as §2

[4] abbreviates: sporulation-accelerating substance 3,000 ppm added at 16 hours, no inhibiting substance, 45 hours culture.
Setting [5] is: 1.4 ppm plus decoyinine 200 ppm at 16 hours, 45 hours.
Where [6] appears, read: 1.4 ppm, no accelerating substance, 45 hours.

For `CC(O)C(=O)O.N` (stereo not shown) [Ammonium lactate], in assay [1] (ammonium lactate added, regardless of the lincomycin concentration), the “sporulation rate compared with test sections in which no accelerating substance had been added” value was “improvement was observed”. Further, in assay [1] (lincomycin 0.3 ppm and 0.5 ppm with ammonium lactate added), the “spore productivity compared with test sections in which no such substance had been added” value is on record as “significantly higher”. Besides, in assay [1] (setting [4]), the Bacterial cell concentration was 5.2e+09 mL⁻¹, the Spore concentration worked out at 4.8e+09 mL⁻¹ and the Sporulation rate stood at 91%.

Take `O=C(N[C@H](CO)[C@H](O)c1ccc([N+](=O)[O-])cc1)C(Cl)Cl` [Chloramphenicol]: in assay [1] (1.4 ppm), the “effect of inhibiting sporulation” value is reported as “observed”. The Bacterial cell concentration came to 5.4e+09 mL⁻¹ in assay [1] (setting [5]); 5.4e+09 mL⁻¹ in assay [1] (setting [6]); 1.6e+09 mL⁻¹ in assay [2] (2.0 ppm, 40 hours culture); 8e+06 mL⁻¹ in assay [2] (6.0 ppm, 40 hours culture). The Spore concentration in assay [1] (setting [5]) turned out to be 4.1e+09 mL⁻¹; in assay [2] (2.0 ppm, 40 hours culture), 1.3e+09 mL⁻¹. Further, the Sporulation rate in assay [1] (setting [5]) is reported as 76%; in assay [1] (setting [6]), 0%; in assay [2] (2.0 ppm, 40 hours culture) it was 79%; in assay [2] (6.0 ppm, 40 hours culture) it was 0%. In addition, in assay [1] (chloramphenicol 1.4 ppm, both test sections (with and without decoyinine)), the “spore productivity compared with test sections in which no such substance had been added” value is recorded as “improved”. Moreover, the “bacterial cell concentration and spore concentration” value in assay [2] (2.0 ppm) is on record as “tended to increase”. Further, the “the growth and the effect of inhibiting sporulation” value in assay [2] (6.0 ppm) is on record as “confirmed”.

In the case of `[H]/N=C(/N)N[C@H]1[C@H](O)[C@@H](O)[C@H](O[C@@H]2O[C@@H](C)[C@](O)(C=O)[C@H]2O[C@@H]2O[C@@H](CO)[C@H](O)[C@@H](O)[C@@H]2NC)[C@@H](N/C(N)=N\[H])[C@@H]1O` [Streptomycin], the “effect of inhibiting sporulation” value is “not observed” in assay [3] (12.5 ppm) and “observed” in assay [3] (15.0 ppm). For the same molecule, the Bacterial cell concentration came to 4.3e+09 mL⁻¹ in assay [3] (12.5 ppm added) and 5.5e+09 mL⁻¹ in assay [3] (15.0 ppm added). The Spore concentration in assay [3] (12.5 ppm added) came out at 4.3e+09 mL⁻¹; in assay [3] (15.0 ppm added), 3e+09 mL⁻¹. The Sporulation rate in assay [3] (12.5 ppm added) is 100%; in assay [3] (15.0 ppm added) it was 54%. Further, the “bacterial cell concentrations as the concentration of the substance increased” value in assay [3] (trend over tested concentrations) is reported as “tended to increase”.

As for `C=C1O[C@@](CO)(n2cnc3c(N)ncnc32)[C@H](O)[C@@H]1O` [Decoyinine], the Sporulation rate entry in assay [1] (decoyinine added during culture in addition to chloramphenicol 1.4 ppm) was “improvement was observed”.

Turning to `CC(=O)O.N` [Ammonium acetate], in assay [1] (lincomycin 0.5 ppm with ammonium acetate), the “bacterial cell concentration and sporulation rate as the amount of ammonium acetate added increased” value is reported as “increased”. Besides, the “spore productivity compared with test sections in which no such substance had been added” value in assay [1] (lincomycin 0.5 ppm with ammonium acetate added) is “significantly higher”. In assay [1] (setting [4]), the Bacterial cell concentration worked out at 4.6e+09 mL⁻¹, the Spore concentration worked out at 4.2e+09 mL⁻¹ and the Sporulation rate was determined as 91%.
